According to ChEMBL document CHEMBL4308841, “Synthesis, in vitro antiproliferative activity, and kinase inhibitory effects of pyrazole-containing diarylureas and diarylamides” (Eur J Med Chem, 2018):

These compounds were tested on HCT-15 (assay: Growth inhibition of human HCT15 cells assessed as cell growth at 1 uM incubated for 48 hrs by sulforhodamine B assay relative to control). Settings: HCT-15, 48 h, read-out: Activity.
Format: functional

Structure (SMILES) | growth at 1 µM
O=C(Nc1cccc(-n2cc(-c3ccncc3)c(-c3cc(O)cc(Cl)c3)n2)c1)Nc1ccc(Cl)c(Cl)c1 | 75%

What follows are compounds tested on SF-268 (assay: Growth inhibition of human SF268 cells assessed as cell growth at 0.1 uM incubated for 48 hrs by sulforhodamine B assay relative to control). Settings: SF-268, 48 h, read-out: Activity.
Format: functional

Structure (SMILES) | growth at 0.1 µM
O=C(Nc1cccc(-n2cc(-c3ccncc3)c(-c3cc(O)cc(Cl)c3)n2)c1)Nc1ccc(Cl)c(Cl)c1 | 98%

These compounds were tested on SF-268 (assay: Growth inhibition of human SF268 cells assessed as cell growth at 1 uM incubated for 48 hrs by sulforhodamine B assay relative to control). Settings: SF-268, 48 h, read-out: Activity.
Format: functional

Structure (SMILES) | growth at 1 µM
O=C(Nc1cccc(-n2cc(-c3ccncc3)c(-c3cc(O)cc(Cl)c3)n2)c1)Nc1ccc(Cl)c(Cl)c1 | 89%

Each compound was assayed on UO-31 (assay: Growth inhibition of human UO31 cells assessed as cell growth at 100 uM incubated for 48 hrs by sulforhodamine B assay relative to control). Settings: UO-31, 48 h, read-out: Activity.
Format: functional

Structure (SMILES) | growth at 100 µM
O=C(Nc1cccc(-n2cc(-c3ccncc3)c(-c3cc(O)cc(Cl)c3)n2)c1)Nc1ccc(Cl)c(Cl)c1 | -27%

The compounds below were run on T47D (assay: Growth inhibition of human T47D cells assessed as cell growth at 0.01 uM incubated for 48 hrs by sulforhodamine B assay relative to control). Settings: read-out: Activity.
Format: functional

Structure (SMILES) | growth at 0.01 µM
O=C(Nc1cccc(-n2cc(-c3ccncc3)c(-c3cc(O)cc(Cl)c3)n2)c1)Nc1ccc(Cl)c(Cl)c1 | 106%

These compounds were tested on BT-549 (assay: Growth inhibition of human BT549 cells assessed as cell growth at 1 uM incubated for 48 hrs by sulforhodamine B assay relative to control). Settings: BT-549, 48 h, read-out: Activity.
Format: functional

Structure (SMILES) | growth at 1 µM
O=C(Nc1cccc(-n2cc(-c3ccncc3)c(-c3cc(O)cc(Cl)c3)n2)c1)Nc1ccc(Cl)c(Cl)c1 | 89%

These compounds were tested on MCF7 (assay: Growth inhibition of human MCF7 cells incubated for 48 hrs by sulforhodamine B assay). Settings: MCF7, 48 h, read-out: GI50.
Format: functional, cell-based

Structure (SMILES) | GI50
O=C(Nc1cccc(-n2cc(-c3ccncc3)c(-c3cc(O)cc(Cl)c3)n2)c1)Nc1ccc(Cl)c(Cl)c1 | 2.51 µM

Same assay, conditions: MCF7, 48 h, read-out: LC50

Structure (SMILES) | LC50
O=C(Nc1cccc(-n2cc(-c3ccncc3)c(-c3cc(O)cc(Cl)c3)n2)c1)Nc1ccc(Cl)c(Cl)c1 | > 100 µM

Same assay, conditions: MCF7, 48 h, read-out: TGI

Structure (SMILES) | TGI
O=C(Nc1cccc(-n2cc(-c3ccncc3)c(-c3cc(O)cc(Cl)c3)n2)c1)Nc1ccc(Cl)c(Cl)c1 | 97.4 µM

Same assay, conditions: MCF7, 48 h, read-out: pGI50 (converted)

Structure (SMILES) | GI50
O=C(Nc1cccc(-n2cc(-c3ccncc3)c(-c3cc(O)cc(Cl)c3)n2)c1)Nc1ccc(Cl)c(Cl)c1 | 2.82 µM

Same assay, conditions: MCF7, 48 h, read-out: pLC50 (converted)

Structure (SMILES) | LC50
O=C(Nc1cccc(-n2cc(-c3ccncc3)c(-c3cc(O)cc(Cl)c3)n2)c1)Nc1ccc(Cl)c(Cl)c1 | > 100 µM

Same assay, conditions: MCF7, 48 h, read-out: pTGI (converted)

Structure (SMILES) | TGI
O=C(Nc1cccc(-n2cc(-c3ccncc3)c(-c3cc(O)cc(Cl)c3)n2)c1)Nc1ccc(Cl)c(Cl)c1 | 9.77 µM

Each compound was assayed on COLO 205 (assay: Growth inhibition of human COLO205 cells assessed as cell growth at 100 uM incubated for 48 hrs by sulforhodamine B assay relative to control). Settings: COLO 205, 48 h, read-out: Activity.
Format: functional

Structure (SMILES) | growth at 100 µM
O=C(Nc1cccc(-n2cc(-c3ccncc3)c(-c3cc(O)cc(Cl)c3)n2)c1)Nc1ccc(Cl)c(Cl)c1 | -88%

What follows are compounds tested on 786-0 (assay: Growth inhibition of human 786-0 cells assessed as cell growth at 100 uM incubated for 48 hrs by sulforhodamine B assay relative to control). Settings: 786-0, 48 h, read-out: Activity.
Format: functional

Structure (SMILES) | growth at 100 µM
O=C(Nc1cccc(-n2cc(-c3ccncc3)c(-c3cc(O)cc(Cl)c3)n2)c1)Nc1ccc(Cl)c(Cl)c1 | -58%

What follows are compounds tested on M14 (assay: Growth inhibition of human M14 cells assessed as cell growth at 100 uM incubated for 48 hrs by sulforhodamine B assay relative to control). Settings: M14, 48 h, read-out: Activity.
Format: functional

Structure (SMILES) | growth at 100 µM
O=C(Nc1cccc(-n2cc(-c3ccncc3)c(-c3cc(O)cc(Cl)c3)n2)c1)Nc1ccc(Cl)c(Cl)c1 | -69%

The compounds below were run on PC-3 (assay: Growth inhibition of human PC3 cells assessed as cell growth at 100 uM incubated for 48 hrs by sulforhodamine B assay relative to control). Settings: PC-3, 48 h, read-out: Activity.
Format: functional

Structure (SMILES) | growth at 100 µM
O=C(Nc1cccc(-n2cc(-c3ccncc3)c(-c3cc(O)cc(Cl)c3)n2)c1)Nc1ccc(Cl)c(Cl)c1 | -35%

The compounds below were run on HT-29 (assay: Growth inhibition of human HT-29 cells assessed as cell growth at 0.01 uM incubated for 48 hrs by sulforhodamine B assay relative to control). Settings: HT-29, 48 h, read-out: Activity.
Format: functional

Structure (SMILES) | growth at 0.01 µM
O=C(Nc1cccc(-n2cc(-c3ccncc3)c(-c3cc(O)cc(Cl)c3)n2)c1)Nc1ccc(Cl)c(Cl)c1 | 91%

Each compound was assayed on SNB-75 (assay: Growth inhibition of human SNB75 cells assessed as cell growth at 100 uM incubated for 48 hrs by sulforhodamine B assay relative to control). Settings: SNB-75, 48 h, read-out: Activity.
Format: functional

Structure (SMILES) | growth at 100 µM
O=C(Nc1cccc(-n2cc(-c3ccncc3)c(-c3cc(O)cc(Cl)c3)n2)c1)Nc1ccc(Cl)c(Cl)c1 | -15%

What follows are compounds tested on HCC 2998 (assay: Growth inhibition of human HCC2998 cells assessed as cell growth at 0.01 uM incubated for 48 hrs by sulforhodamine B assay relative to control). Settings: HCC 2998, 48 h, read-out: Activity.
Format: functional

Structure (SMILES) | growth at 0.01 µM
O=C(Nc1cccc(-n2cc(-c3ccncc3)c(-c3cc(O)cc(Cl)c3)n2)c1)Nc1ccc(Cl)c(Cl)c1 | 104%

These compounds were tested on SF-295 (assay: Growth inhibition of human SF295 cells incubated for 48 hrs by sulforhodamine B assay). Settings: SF-295, 48 h, read-out: GI50.
Format: functional, cell-based

Structure (SMILES) | GI50
O=C(Nc1cccc(-n2cc(-c3ccncc3)c(-c3cc(O)cc(Cl)c3)n2)c1)Nc1ccc(Cl)c(Cl)c1 | 1.7 µM

Same assay, conditions: SF-295, 48 h, read-out: LC50 (the source's name)

Structure (SMILES) | CC50
O=C(Nc1cccc(-n2cc(-c3ccncc3)c(-c3cc(O)cc(Cl)c3)n2)c1)Nc1ccc(Cl)c(Cl)c1 | 4.4 µM

Same assay, conditions: SF-295, 48 h, read-out: TGI

Structure (SMILES) | TGI
O=C(Nc1cccc(-n2cc(-c3ccncc3)c(-c3cc(O)cc(Cl)c3)n2)c1)Nc1ccc(Cl)c(Cl)c1 | 45 µM

Same assay, conditions: SF-295, 48 h, read-out: pGI50 (converted)

Structure (SMILES) | GI50
O=C(Nc1cccc(-n2cc(-c3ccncc3)c(-c3cc(O)cc(Cl)c3)n2)c1)Nc1ccc(Cl)c(Cl)c1 | 1.7 µM

Same assay, conditions: SF-295, 48 h, read-out: pLC50 (the source's name) (converted)

Structure (SMILES) | CC50
O=C(Nc1cccc(-n2cc(-c3ccncc3)c(-c3cc(O)cc(Cl)c3)n2)c1)Nc1ccc(Cl)c(Cl)c1 | 43.7 µM

Same assay, conditions: SF-295, 48 h, read-out: pTGI (converted)

Structure (SMILES) | TGI
O=C(Nc1cccc(-n2cc(-c3ccncc3)c(-c3cc(O)cc(Cl)c3)n2)c1)Nc1ccc(Cl)c(Cl)c1 | 4.57 µM
